Results reported in publication PMC8892849 (ACS Omega, 2022).

Experiments:
[1] = system: hepatocellular carcinoma (HepG-2); experiment: In vitro cytotoxic assay; type: cell-based, human; conditions: for IC50: Homo sapiens, HepG2, 48 h, read-out: IC50 (mean ± SEM) HepG-2; for SI (selectivity index) HepG-2: normal PBMC vs HepG-2
[2] = system: prostate carcinoma (PC-3); experiment: In vitro cytotoxic assay; type: cell-based, human; conditions: for IC50: Homo sapiens, 48 h, read-out: IC50 (mean ± SEM) PC-3; for SI (selectivity index) PC-3: normal PBMC vs PC-3
[3] = system: breast adenocarcinoma (MCF-7); experiment: In vitro cytotoxic assay; type: cell-based, human; conditions: for IC50: Homo sapiens, MCF7, 48 h, read-out: IC50 (mean ± SEM) MCF-7; for SI (selectivity index) MCF-7: normal PBMC vs MCF-7
[4] = system: non-small cell lung cancer cells (A-549); experiment: In vitro cytotoxic assay; type: cell-based, human; conditions: for IC50: Homo sapiens, A549, 48 h, read-out: IC50 (mean ± SEM) A-549; for SI (selectivity index) A-549: normal PBMC vs A-549
[5] = In vitro cytotoxic assay; type: cell-based; conditions: normal peripheral blood mononuclear cells (PBMCs)
[6] = system: p53 ubiquitination; experiment: In vivo p53 ubiquitination inhibition of MCF-7 cells; type: cell-based; conditions: Homo sapiens, MCF7, 6 h, read-out: IC50 (mean ± SEM) p53 ubiquitination
[7] = target: EGFR^WT (Homo sapiens, UniProt P00533); experiment: HTRF kinase inhibition assay, EGFR^WT
[8] = target: EGFR^T790M (Homo sapiens, UniProt P00533, T790M); experiment: HTRF kinase inhibition assay, EGFR^T790M
Chain of EGFR^T790M (P00533 25-1210 T790M): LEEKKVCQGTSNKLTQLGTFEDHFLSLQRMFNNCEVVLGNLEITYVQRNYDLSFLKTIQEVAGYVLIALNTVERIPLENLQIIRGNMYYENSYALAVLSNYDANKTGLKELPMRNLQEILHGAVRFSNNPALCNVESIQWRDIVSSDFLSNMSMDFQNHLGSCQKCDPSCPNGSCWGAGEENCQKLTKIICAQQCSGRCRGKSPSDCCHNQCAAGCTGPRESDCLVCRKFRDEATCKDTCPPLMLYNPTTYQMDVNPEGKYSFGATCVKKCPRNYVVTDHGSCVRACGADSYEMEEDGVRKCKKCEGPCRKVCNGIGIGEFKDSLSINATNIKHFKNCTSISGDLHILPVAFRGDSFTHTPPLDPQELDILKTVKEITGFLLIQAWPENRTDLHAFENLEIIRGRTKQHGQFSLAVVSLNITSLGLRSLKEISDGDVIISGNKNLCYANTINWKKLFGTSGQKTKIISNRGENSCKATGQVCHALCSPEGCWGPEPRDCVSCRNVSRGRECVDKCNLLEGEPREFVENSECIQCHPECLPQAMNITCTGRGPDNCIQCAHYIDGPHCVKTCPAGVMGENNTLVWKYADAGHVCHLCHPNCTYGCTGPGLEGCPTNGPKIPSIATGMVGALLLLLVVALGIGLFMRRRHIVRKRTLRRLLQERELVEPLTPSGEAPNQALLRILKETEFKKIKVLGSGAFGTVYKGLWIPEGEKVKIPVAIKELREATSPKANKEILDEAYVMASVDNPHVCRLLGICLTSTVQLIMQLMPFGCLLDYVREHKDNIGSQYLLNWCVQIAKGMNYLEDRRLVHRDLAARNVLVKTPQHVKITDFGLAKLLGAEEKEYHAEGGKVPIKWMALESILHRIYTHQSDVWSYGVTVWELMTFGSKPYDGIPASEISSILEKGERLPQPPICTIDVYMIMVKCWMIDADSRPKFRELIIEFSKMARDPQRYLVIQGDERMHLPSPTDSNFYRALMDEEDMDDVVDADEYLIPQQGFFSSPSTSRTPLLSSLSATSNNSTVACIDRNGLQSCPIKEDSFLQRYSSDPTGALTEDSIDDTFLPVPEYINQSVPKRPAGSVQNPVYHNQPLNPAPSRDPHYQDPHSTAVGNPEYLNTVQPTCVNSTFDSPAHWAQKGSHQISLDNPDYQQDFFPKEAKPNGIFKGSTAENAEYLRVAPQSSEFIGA

Chain of EGFR^WT (P00533 25-1210): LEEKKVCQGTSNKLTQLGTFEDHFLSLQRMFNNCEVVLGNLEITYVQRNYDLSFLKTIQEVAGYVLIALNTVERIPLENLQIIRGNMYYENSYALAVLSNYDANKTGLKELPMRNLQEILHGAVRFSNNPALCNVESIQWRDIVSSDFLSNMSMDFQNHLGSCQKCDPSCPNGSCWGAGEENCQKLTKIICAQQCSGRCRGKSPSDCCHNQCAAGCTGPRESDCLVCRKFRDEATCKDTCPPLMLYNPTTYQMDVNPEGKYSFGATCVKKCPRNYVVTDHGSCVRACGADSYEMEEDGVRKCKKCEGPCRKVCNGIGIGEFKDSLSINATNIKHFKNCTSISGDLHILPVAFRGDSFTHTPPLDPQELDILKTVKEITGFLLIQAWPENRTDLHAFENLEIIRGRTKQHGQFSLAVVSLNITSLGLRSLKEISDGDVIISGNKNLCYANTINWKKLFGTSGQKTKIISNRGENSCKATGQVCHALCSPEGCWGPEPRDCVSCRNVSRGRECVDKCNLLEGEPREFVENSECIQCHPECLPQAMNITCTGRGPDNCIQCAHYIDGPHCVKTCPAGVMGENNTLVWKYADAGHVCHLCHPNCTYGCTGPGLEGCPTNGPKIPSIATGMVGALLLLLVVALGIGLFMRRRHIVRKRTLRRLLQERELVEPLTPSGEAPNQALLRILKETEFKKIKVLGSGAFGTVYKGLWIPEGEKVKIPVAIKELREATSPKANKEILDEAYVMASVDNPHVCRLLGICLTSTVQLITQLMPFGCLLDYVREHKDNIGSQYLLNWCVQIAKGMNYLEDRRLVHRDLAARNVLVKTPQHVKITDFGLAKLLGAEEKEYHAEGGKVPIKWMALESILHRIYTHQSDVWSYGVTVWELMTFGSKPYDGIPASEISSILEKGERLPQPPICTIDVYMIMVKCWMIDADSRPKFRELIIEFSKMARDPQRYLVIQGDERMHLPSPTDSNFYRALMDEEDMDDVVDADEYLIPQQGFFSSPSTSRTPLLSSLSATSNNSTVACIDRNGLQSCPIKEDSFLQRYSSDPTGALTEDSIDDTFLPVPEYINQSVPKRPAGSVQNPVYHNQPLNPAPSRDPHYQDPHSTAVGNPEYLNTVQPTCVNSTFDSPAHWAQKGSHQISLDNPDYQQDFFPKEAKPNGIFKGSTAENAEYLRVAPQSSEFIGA

| Compound | IC50 [1] | IC50 [2] | IC50 [3] | IC50 [4] | IC50 at 48 h [5] | SI (selectivity index) HepG-2 [1] | SI (selectivity index) PC-3 [2] | SI (selectivity index) MCF-7 [3] | SI (selectivity index) A-549 [4] | IC50 [6] | IC50 [7] | IC50 [8] | folds more potent than doxorubicin and erlotinib ([3]; MCF-7 cells) | folds more potent than doxorubicin ([4]; A-549 cell line) | fold more potent EGFR^WT inhibitor than erlotinib ([7]; EGFR^WT) | folds less potency compared to erlotinib ([4]; A-549) |
| --- | --- | --- | --- | --- | --- | --- | --- | --- | --- | --- | --- | --- | --- | --- | --- | --- |
| CC(C)NC(=S)NC(=O)Cc1ccccc1 [Compound 2a, N-(Isopropylcarbamothioyl)-2-phenylacetamide] | 57.85 ± 0.07 µM | 26.8 ± 2.21 µM | 37.73 ± 0.08 µM | 34.57 ± 0.06 µM | 121 ± 11.3 µM |  |  |  |  |  |  |  |  |  |  |  |
| Nc1ccccc1NC(=S)NC(=O)Cc1ccccc1 [Compound 2c, N-((2-Aminophenyl)carbamothioyl)-2-phenylacetamide] | 47.66 ± 0.04 µM | 25.44 ± 0.04 µM | 21.76 ± 0.08 µM | 27.81 ± 0.04 µM | 145 ± 14.9 µM |  |  |  |  |  |  |  |  |  |  |  |
| O=C(Cc1ccccc1)NC(=S)Nc1cccc(O)c1 [Compound 2d, N-((3-Hydroxyphenyl)carbamothioyl)-2-phenylacetamide] | 34.77 ± 0.03 µM | 39.3 µM | 24.74 ± 0.08 µM | 20.84 ± 0.04 µM | 158 ± 16.4 µM |  |  |  |  |  |  |  |  |  |  |  |
| O=C(Cc1ccccc1)NC(=S)Nc1ccc([N+](=O)[O-])cc1Cl [Compound 2e, N-((2-Chloro-4-nitrophenyl)carbamothioyl)-2-phenylacetamide] | 37.76 ± 0.05 µM | 40.56 ± 0.05 µM | 25.64 ± 0.08 µM | 25.96 ± 0.05 µM | 169 ± 17.4 µM |  |  |  |  |  |  |  |  |  |  |  |
| O=C(Cc1ccccc1)Nc1nc2ccccc2[nH]1 [Compound 3, N-(1H-Benzo[d]imidazol-2-yl)-2-phenylacetamide] | 37.73 ± 0.02 µM | 17.29 ± 0.03 µM | 6.59 ± 0.07 µM | 10.42 ± 0.05 µM | 179 ± 18.8 µM |  |  |  |  |  |  |  |  |  |  |  |
| CC(C)Nc1nnc(Cc2ccccc2)[nH]1 [Compound 5a, 5-Benzyl-N-isopropyl-4H-1,2,4-triazol-3-amine] | 35.66 ± 0.04 µM | 16.49 ± 0.05 µM | 5.42 ± 0.05 µM | 10.37 ± 0.04 µM | 175 ± 18.2 µM | SI = 4.90 | SI = 10.60 | SI = 32.26 | SI = 16.86 | 0.00068 ± 1e-05 µM | 0.25 ± 0.01 µM | 0.17 ± 0.05 µM |  |  |  |  |
| c1ccc(Cc2nnc(Nc3nccs3)[nH]2)cc1 [Compound 5b, N-(5-Benzyl-4H-1,2,4-triazol-3-yl)thiazol-2-amine] | 38.49 ± 0.02 µM | 18.22 ± 0.03 µM | 4.18 ± 0.03 µM | 8.27 ± 0.03 µM | 166 ± 17.4 µM | SI = 4.30 | SI = 9.09 | SI = 39.65 | SI = 20.04 | 0.00062 ± 5e-05 µM | 0.22 ± 0.15 µM | 0.13 ± 0.11 µM |  |  |  |  |
| Oc1cccc(Nc2nnc(Cc3ccccc3)[nH]2)c1 [Compound 5c, 3-((5-Benzyl-4H-1,2,4-triazol-3-yl)amino)phenol] | 27.59 ± 0.04 µM | 18.44 ± 0.04 µM | 4.33 ± 0.04 µM | 12.3 ± 0.04 µM | 146 ± 16.1 µM | SI = 5.23 | SI = 7.93 | SI = 33.79 | SI = 11.89 |  | 0.24 ± 0.3 µM | 0.14 µM |  |  |  |  |
| c1ccc(Cc2nc(Nc3nccs3)n(-c3ccccc3)n2)cc1 [Compound 6a, N-(3-Benzyl-1-phenyl-1H-1,2,4-triazol-5-yl)thiazol-2-amine] | 10.48 ± 0.03 µM | 16.3 ± 0.09 µM | 4.3 ± 0.04 µM | 5.2 ± 0.03 µM | 157 ± 16.9 µM | SI = 15.02 | SI = 9.65 | SI = 36.61 | SI = 30.27 |  | 0.18 ± 0.1 µM | 0.12 ± 0.18 µM |  |  |  |  |
| Oc1cccc(Nc2nc(Cc3ccccc3)nn2-c2ccccc2)c1 [Compound 6b, 3-((3-Benzyl-1-phenyl-1H-1,2,4-triazol-5-yl)amino)phenol] | 5.47 ± 0.02 µM | 13.21 ± 0.06 µM | 1.29 ± 0.03 µM | 3.18 ± 0.03 µM | 178 ± 17.7 µM | SI = 32.58 | SI = 13.49 | SI = 138.16 | SI = 56.04 | 0.0005 ± 5e-05 µM | 0.08 ± 0.05 µM | 0.09 ± 0.01 µM | 3.2 folds | 2.6 folds | 1 fold |  |
| O=[N+]([O-])c1ccc(Nc2nc(Cc3ccccc3)nn2-c2ccccc2)c(Cl)c1 [Compound 6c, 3-Benzyl-N-(2-chloro-4-nitrophenyl)-1-phenyl-1H-1,2,4-triazol-5-amine] | 7.73 ± 0.04 µM | 26.41 ± 0.05 µM | 2.51 ± 0.06 µM | 5.8 ± 0.05 µM | 188 ± 19.8 µM | SI = 24.27 | SI = 7.10 | SI = 74.76 | SI = 32.35 | 0.00048 ± 2e-05 µM | 0.15 ± 0.02 µM | 0.13 ± 0.07 µM |  |  |  |  |
| O=c1nc(Cc2ccccc2)[nH]c(Nc2nccs2)n1 [Compound 7, 4-Benzyl-6-(thiazol-2-ylamino)-1,3,5-triazin-2(5H)-one] | 29.75 ± 0.03 µM | 17.9 ± 0.03 µM | 4.65 ± 0.07 µM | 7.43 ± 0.04 µM | 165 ± 18.1 µM |  |  |  |  |  | 0.22 ± 0.05 µM | 0.18 ± 0.11 µM |  |  |  | ~2 folds |
| CC(C)N=c1nc(Cc2ccccc2)[nH]c(=S)[nH]1 [Compound 8a, 6-Benzyl-4-(isopropylimino)-3,4-dihydro-1,3,5-triazine-2(1H)-thione] | 59.84 ± 0.05 µM | 36.55 ± 0.03 µM | 13.75 ± 0.08 µM | 25.46 ± 0.05 µM | 173 ± 18.9 µM | SI = 2.91 | SI = 4.74 | SI = 12.61 | SI = 6.81 |  |  |  |  |  |  |  |
| S=c1[nH]c(Cc2ccccc2)nc(=Nc2nccs2)[nH]1 [Compound 8b, 6-Benzyl-4-(thiazol-2-ylimino)-3,4-dihydro-1,3,5-triazine-2(1H)-thione] | 60.48 ± 0.05 µM | 42.56 ± 0.06 µM | 17.95 ± 0.04 µM | 37.21 ± 0.03 µM | 197 ± 20.7 µM | SI = 3.25 | SI = 4.62 | SI = 10.95 | SI = 5.28 |  |  |  |  |  |  |  |
| Oc1cccc(N=c2nc(Cc3ccccc3)[nH]c(=S)[nH]2)c1 [Compound 8c, 6-Benzyl-4-((3-hydroxyphenyl)imino)-3,4-dihydro-1,3,5-triazine-2(1H)-thione] | 45.49 ± 0.04 µM | 32.48 ± 0.04 µM | 10.31 ± 0.04 µM | 8.29 ± 0.03 µM | 189 ± 19.9 µM | SI = 4.15 | SI = 5.81 | SI = 18.32 | SI = 22.78 |  |  |  |  |  |  |  |
| O=[N+]([O-])c1ccc(N=c2nc(Cc3ccccc3)[nH]c(=S)[nH]2)c(Cl)c1 [Compound 8d, 6-Benzyl-4-((2-chloro-4-nitrophenyl)imino)-3,4-dihydro-1,3,5-triazine-2(1H)-thione] | 47.86 ± 0.05 µM | 39.55 ± 0.08 µM | 14.77 ± 0.05 µM | 9.5 ± 0.06 µM | 179 ± 19 µM | SI = 3.74 | SI = 4.52 | SI = 12.12 | SI = 18.85 |  |  |  |  |  |  |  |
| COc1cccc2c1C(=O)c1c(O)c3c(c(O)c1C2=O)C[C@@](O)(C(=O)CO)C[C@@H]3O[C@H]1C[C@H](N)[C@H](O)[C@H](C)O1 [DOX, doxorubicin, reference compound] | 4.51 ± 0.26 µM | 8.11 ± 0.05 µM |  | 8.2 ± 0.08 µM | 250 ± 26.6 µM |  |  |  |  |  |  |  |  |  |  |  |
| C#Cc1cccc(Nc2ncnc3cc(OCCOC)c(OCCOC)cc23)c1 [erlotinib, reference compound] |  | 8.89 ± 0.6 µM |  | 3.76 ± 0.2 µM | 45.8 ± 26.6 µM |  |  |  |  |  |  |  |  |  |  |  |
